Results reported in patent US12514834B2, “Pharmaceutical composition for treating and/or preventing renal cystic ciliopathy” (Kyoto University, priority 2022, dated 2026).

What was measured:
[1] = tested on: cysts of collecting duct organoids from PKD1 knockout iPS cells (1383D2 cell line); experiment: Cyst enlargement inhibition in cysts from artificial collecting duct organoids induced from PKD1 knockout iPS cells; assay type: cell-based, human; details: 0.1 μM compound, with 2.5 μM AVP, 3 days of culturing, vs 0.1% DMSO; FIGS. 1-5
Description: Using PKD1 knockout iPS cells of the 1383D2 cell line, artificial collecting duct organoids with cystic structures were induced by the above method. The following protocol was used to examine compounds that inhibit cyst enlargement. • 1. Organoids in which cyst formation was occurring were collected in tubes. • 2. Medium was removed and 2 ml of Cell Recovery Solution was added. (4° C., 30 minutes) • 3. Gel was dissolved by gentle pipetting with a P-1000 pipetteman and then centrifuged. (500 g, 2 minutes) • 4. After removing the supernatant from 3 and adding 5 ml of FBS-containing medium (STO medium), cysts were separated from the organoids by pipetting. • 5. Using a stereomicroscope, cysts were collected in 15 ml tubes. • 6. The supernatant was removed, and then 2 ml of Accutase was added to perform treatment at 37° C. for 5 minutes. • 7. Cells were dissociated down to single cells by pipetting with a P-1000 pipetteman. • 8. After filtering, cells were counted. • 9. After cell counting, a cell suspension containing the required number of cells was transferred to a tube, and then 5 ml of FBS-containing medium (STO medium) was added to stop the Accutase reaction. To seed at 5×10^4 cells/well, the amount of the cell suspension required was calculated. • 10. Pellets were prepared by centrifugation (200 g, 5 minutes). • 11. The supernatant was thoroughly removed, and then DMEM/F12+B27 w/o V.A. medium (10% Afamin/Wnt3a CM, 200 ng/ml R-Spondin 1, 200 ng/ml FGF1, 10 μM Forskolin, 2.5 μM AVP, 10 μM Y27632) was added for suspension. To seed at 5×10^4 cells/well, the amount of medium required was calculated. • 12. The cell suspension from 11 was seeded at 5×10^4 cells/well into pre-prepared 50% Matrigel plates. The cell suspension was added slowly to avoid disrupting the Matrigel. • 13. […] Nine (9) locations inside the wells were photographed using a 4× objective lens under a fluorescence microscope (Keyence, BZ-X700), the cyst area was measured using a BZ-X Analyzer, and then the average value was calculated.
Cyst enlargement-inhibiting compounds to be evaluated in step 14 were added. […]

[2] = tested on: cyst cells from PKD1 knockout iPS cell-derived collecting duct organoids; experiment: Microarray comparison of gene expression in cyst cells cultured with and without TTNPB (GSEA, heat maps); assay type: cell-based, human; details: 0.1 μM TTNPB, cysts on day 5 of culture
Description: For comprehensive profiling of transcripts encoding human proteins, microarray analysis was performed at Filgen using the Human 8×60K LncRNA expression array (ArrayStar). Labeling of samples and array hybridization were performed according to the Agilent One-Color Microarray-Based Gene Expression Analysis protocol (Agilent Technology). Data were collected using Agilent's Feature Extraction software. Raw signal intensities were normalized using the quantile normalization method of GeneSpring GX v12.1.
To clarify the mechanism of action of TTNPB, gene expression in cyst cells cultured with and without TTNPB was compared by microarray (FIGS. 6 and 7).

[3] = tested on: Pkd1flox/flox:Ksp-Cre mice (ADPKD model); experiment: ATRA treatment of ADPKD model mice; assay type: in vivo, mouse
From the text: Pkd1^flox/flox:Ksp-cre mice, which are ADPKD model mice, develop numerous cysts progressively after birth and die at approximately 14 days of age due to renal failure.
Mouse lineages were maintained with heterozygous Pkd1^flox/+:Ksp-Cre mice, and Pkd1^flox/flox:Ksp-cre mice were generated by mating mice of the same lineage.
On postnatal day 3, Pkd1^flox/flox:Ksp-cre mice (Cystic) and Pkd1^flox/+:Ksp-Cre mice (Non-cystic) were intraperitoneally administered with ATRA (Sigma, #R2625) dissolved in sunflower oil containing 2% DMSO (solvent) to achieve a dose of 10 mg/kg. A group of mice administered with only the solvent intraperitoneally was served as a negative control. Mice were euthanized on postnatal day 9, and renal tissues and blood samples were collected.
BUN in mouse serum was measured using an UN-L kit (Serotec, #A667-00).
Kidneys were fixed in 4% paraformaldehyde solution, and 4 μm-thick paraffin sections were prepared. After deparaffinization, HE staining was performed and renal tissues were photographed under an optical microscope. Cystic index was calculated by total cystic area/total renal tissue area×100 using image analysis and measurement software (WinROOF, Mitani Corporation).
Therapeutic effects of ATRA on ADPKD model mice Since ATRA has already been used as a therapeutic agent for Acute Promyelocytic Leukemia (APL) patients, the efficacy of ATRA in ADPKD model mice was examined from a drug repositioning perspective. To reflect the in vitro results of ATRA on collecting duct cyst enlargement in in vivo, Pkd1^flox/flox:Ksp-Cre mice, in which the Pkd1 allele is conditionally inactivated under expression of kidney-specific Ksp-Cre recombinase in the distal nephron segments and collecting ducts, were used. The mice develop renal failure from birth due to progressive cyst formation and die about 2 weeks after birth. Because Ksp cadherin is specifically expressed in the collecting ducts and distal tubules, cysts originating from the collecting ducts and distal tubules are formed in these ADPKD model mice. ATRA was administered at 10 mg/kg intraperitoneally to mice on postnatal day 3 (P3), and mice were then sacrificed at P9 (FIG. 12).

[4] = 10 mg/kg intraperitoneally on P3, P9, FIG. 14

Row | SMILES | cyst size (cyst area) [1] | TGFβ signaling pathway (GSEA) ([2]; FIG. 8) | expression levels of MMP1, SLC2A1, CFTR, and HMGCR ([2]; heat map FIG. 9) | expression of cellular senescence marker genes such as CDKN2B (p15) ([2]; heat map FIG. 10) | cyst formation on the cortical side (HE-stained renal tissue sections) [3, 4] | kidney size (HE-stained renal tissue sections) [3, 4] | ratio of kidney weights to body weight (2KW/BW) ([3]; 10 mg/kg intraperitoneally on P3, P9, vs solvent, FIG. 13) | cystic index (proportion of the area occupied by cysts in the renal tissue) ([3]; 10 mg/kg intraperitoneally on P3, P9, vs solvent, FIG. 15) | body weight ([3]; 10 mg/kg intraperitoneally on P3, sacrificed at P9, FIG. 12) | BUN (blood urea nitrogen) levels ([3]; 10 mg/kg intraperitoneally on P3, serum at P9, vs control mice treated with solvent, FIG. 16)
1 | C/C(=C\c1ccc(C(=O)O)cc1)c1ccc2c(c1)C(C)(C)CCC2(C)C [TTNPB, 4-[(E)-2-(5,6,7,8-tetrahydro-5,5,8,8-tetramethyl-2-naphthalenyl)-1-propenyl]benzoic acid] | significant reduction in cyst size | inhibited | decreased | promotes the expression |  |  |  |  |  | 
2 | CC1=C(/C=C/C(C)=C/C=C/C(C)=C/C(=O)O)C(C)(C)CCC1 [ATRA, all-trans retinoic acid] | reduced the cyst sizes |  |  |  | tended to inhibit cyst formation on the cortical side | suppressed the increase in kidney size | significantly decreased | significantly reduced | No significant body weight loss | significantly lower
3 | CC1(C)CCC(C)(C)c2cc(NC(=O)c3ccc(C(=O)O)cc3)ccc21 [AM80, tamibarotene] | significantly reduced the cyst sizes |  |  |  |  |  |  |  |  | 
